Assay results: patent US8535639B2, “Trifunctional imaging agent for monoclonal antibody tumor-targeted imaging” (The United States of America, as represented by the …, priority 2007, dated 2013)

Target: T1, EGFR-expressing A431 cells (Homo sapiens, UniProt P00533)
T1 construct: host or cells: A431 cells
Assay: Confocal fluorescence microscopy binding
Type: cell-based
Conditions: 10 ug/mL, 2 hr at 37° C.
Procedure: A431, SKOV3, and NIH3T3 cells were obtained from ATCC (Manassas, Va.). The NIH3T3 cells were transfected with HER2 genes (3T3/HER2+), in order to overexpress HER2 receptors (Di Fiore et al., Science 1987, 237, 178-182). All of the cell lines were grown at 37° C. in the presence of 5% CO2 in DMEM medium supplemented with 1% L-glutamine, and 5% FBS. For the confocal fluorescence microscopy experiments cells were plated in Lab-Tek chambered slides (#178599 Nalge Nunc) at an appropriate dilution and allowed to attach overnight at 37° C. prior to treatment. […] The individual cell lines seeded on chambered slides with 60-80% confluency were incubated for 2 hr at 37° C. in the dark. After incubation the cell culture medium was removed and slides were washed three times with PBS (pH=7.4) and immediately fixed in 4% paraformaldehyde prepared in PBS (pH=7.4) for 5 min at room temperature. Fluorescent mounting medium (S3023, DakoCytomation) was added at the time the slide was covered with a cover glass to stabilize the fluorophores before and during confocal microscopy. […] Fluorescence (Cy5.5 or Cy7) and DIC images were collected simultaneously using a 63x Plan-Apochromat 1.4 NA oil immersion objective and a long pass 650 nm emission filter. […]

T1 sequence (P00533 25-1210): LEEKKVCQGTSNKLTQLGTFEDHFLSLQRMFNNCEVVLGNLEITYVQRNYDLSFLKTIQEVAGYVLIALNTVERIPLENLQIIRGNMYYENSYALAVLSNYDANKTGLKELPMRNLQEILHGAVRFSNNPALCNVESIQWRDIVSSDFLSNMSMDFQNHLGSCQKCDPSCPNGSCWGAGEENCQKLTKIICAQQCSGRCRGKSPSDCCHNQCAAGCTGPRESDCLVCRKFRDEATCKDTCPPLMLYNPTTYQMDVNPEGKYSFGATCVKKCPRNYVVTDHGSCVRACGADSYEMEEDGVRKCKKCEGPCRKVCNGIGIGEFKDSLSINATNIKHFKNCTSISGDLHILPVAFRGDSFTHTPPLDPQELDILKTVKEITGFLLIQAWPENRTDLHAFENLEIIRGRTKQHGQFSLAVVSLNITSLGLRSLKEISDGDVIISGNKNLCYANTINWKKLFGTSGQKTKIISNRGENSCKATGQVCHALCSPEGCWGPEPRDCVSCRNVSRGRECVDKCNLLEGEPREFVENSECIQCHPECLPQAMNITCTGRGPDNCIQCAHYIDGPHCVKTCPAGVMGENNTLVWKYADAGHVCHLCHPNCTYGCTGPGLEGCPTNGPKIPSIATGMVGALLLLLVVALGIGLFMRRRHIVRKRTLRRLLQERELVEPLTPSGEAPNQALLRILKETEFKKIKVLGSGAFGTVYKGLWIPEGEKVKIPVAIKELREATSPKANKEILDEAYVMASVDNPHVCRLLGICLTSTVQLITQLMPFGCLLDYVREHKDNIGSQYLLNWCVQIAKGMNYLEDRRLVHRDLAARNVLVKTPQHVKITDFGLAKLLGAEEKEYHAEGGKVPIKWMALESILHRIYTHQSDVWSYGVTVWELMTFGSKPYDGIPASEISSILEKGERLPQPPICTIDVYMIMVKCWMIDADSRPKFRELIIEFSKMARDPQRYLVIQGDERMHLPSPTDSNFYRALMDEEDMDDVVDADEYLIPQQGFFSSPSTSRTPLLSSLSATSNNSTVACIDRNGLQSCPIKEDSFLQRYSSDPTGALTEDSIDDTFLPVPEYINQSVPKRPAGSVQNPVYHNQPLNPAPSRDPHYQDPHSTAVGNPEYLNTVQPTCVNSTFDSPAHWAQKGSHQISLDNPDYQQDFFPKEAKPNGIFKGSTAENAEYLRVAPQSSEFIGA

**Q.** CC[N+]1=C(/C=C/C=C/C=C/C=C2/N(CCCCCC(=O)N[C@@H](CCCCNC(=O)C3CCC(CN4C(=O)CC(SCCCC(=N)NC)C4=O)CC3)C(=O)Nc3ccc(C[C@H](CN(CC(=O)O)[C@H]4CCCC[C@@H]4N(CC(=O)O)CC(=O)O)N(CC(=O)O)CC(=O)O)cc3)c3ccc(S(=O)(=O)O)cc3C2(C)C)C(C)(C)c2cc(S(=O)(=O)[O-])ccc21 (stereo partly shown) [imaging agent 11] was tested. Which “binding / fluorescent labeling” value did it give?
**A.** specifically labels
